Experimental data: patent US8569279B2, “Method for modulating claudin mediated functions” (Sucampo AG, priority 2008, dated 2013)

What was measured:
[1] = tested on: epithelial tight junction, mouse intestine (jejunum mucosa); assay: Tissue conductance and dilution potentials in normal mouse intestines after Compound A in drinking water; type: in vivo; conditions: male C57BL/6 mice, 10 μM in drinking water for 7 to 14 days, jejunum mucosa in chamber, FIG. 1
Description: (Method) Male C57BL/6 mice (7-8 weeks old) were administered with 10 μM Compound A in the drinking water and fed standard diet for 7 to 14 days. During the period, the mice could drink the water freely. At the conclusion of this period, the mice were sacrificed and the intestines were removed. Approximately 5 cm sections were cut from tip of the jejunum. The intestine section was opened from ventral side, and then it was washed several Limes with Ringer solution. The mucosa of the intestine was carefully stripped from the serosa using forceps. The mucosa was mounted in a standard chamber (5 mm in diameter of exposed surface area) and bathed with buffer solution. Transepithelial short-circuit current (Isc) was measured and total tissue conductance was determined by measuring the current deflections resulting from a 1 mV/min transepithelial pulse and applying Ohm's law. When stable measurement of Isc was achieved, the buffer solution was replaced with potassium-free solution. The solution in the luminal bath were then replaced with the solution containing […], 150 mM LiCl, 150 mM KCl, 75 mM MgCl2 and 75 mM CaCl2, in turn, and dilution potentials in each solution were measured.

claudin-15 protein = assay: Expression of claudin proteins in mouse intestine (immunofluorescence staining); type: in vivo; conditions: 10 μM in drinking water for 7 to 14 days, immunofluorescence staining of frozen slices, FIG. 2
Description: (Method) Treatment of mice and removal of intestine were conducted by similar way mentioned above. The removed intestine was frozen in liquid nitrogen and frozen slices were prepared. Expressions and intracellular distribution of claudin-15 protein were determined with immunofluorescence staining. […] (Conclusion) Continuous administration of Compound A caused expression changes of tight junction proteins, such as the decrease of claudin-15 which induces changes of electrophysiological property of the tight junction. Decrease of the expression of claudin-15 in the tight junction resulted to enhance the tightness of the tight junction and strengthen the epithelial sheet against toxic substances.

[2] = tested on: skin ulcer and/or bedsore animal model, db/db mice; assay: Skin ulcer healing in genetically-diabetic mice (db/db mice); type: in vivo, mouse; conditions: topical twice a day for 12 days; for Ulcer area, %: Day 13 relative to Day 1, mean ± standard error, control 70.0 ± 5.7
Source text: Female BKS.Cg−+Lepr^db/+Lepr^db/Jcl mice (db/db mice, SPF; CLEA Japan, Inc.), genetically-diabetic mice, were used for the present study. After the removal of the dorsal hair, the skin covering an area of 1.5×1.5 cm centered on the dorsal median was excised using ophthalmic scissors under anesthesia to make a skin ulcer and/or bedsore animal model. Then the excised skin area (ulcer area) was covered with porous film dressing measuring 4×4 cm. The dosing preparation was applied to the ulcer area at a dosage volume of 0.1 mL per site. The application was performed twice a day for 12 days from the day of preparation of the ulcers. Compound B: (−)-7-{(2R,4aR,5R,7aR)-2-[(3S)-1,1-difluoro-3-methylpentyl]-2-hydroxy-6-oxooctahydrocyclopenta[b]pyran-5-yl}heptanoic acid at 10 or 30 micro-g/site was applied to the ulcer per time. The same volume of the vehicle (physiological saline solution containing 1% polysorbate 80: 1% PS80) was applied to the animals in the control group. The day of the start of the application was defined as Day 1. On the Day 1 and Day 13, the frontal edge of the epidermis or the regeneration epidermis of each ulcer was traced on a plastic sheet. The traced ulcer area was measured with an area-line meter. The ulcer area (%) on Day 13 was calculated on the basis of the ulcer area on Day 1. Group mean values with standard errors were calculated for ulcer area (%).

Structure (SMILES) | dilution potential of univalent cations compared to no-treatment group [1] | total tissue conductance compared to no-treatment group [1] | expression of claudin-15 protein (claudin-15 protein) | ulcer healing as compared to the control group ([2]; 10 and 30 micro-g/site) | Ulcer area, % ([2]; 10 micro-g/site) [%] | Ulcer area, % ([2]; 30 micro-g/site) [%]
CCCCC(F)(F)[C@@]1(O)CC[C@H]2[C@@H](CC(=O)[C@@H]2CCCCCCC(=O)O)O1 [Compound A, (−)-7-[(2R,4aR,5R,7aR)-2-(1,1-Difluoropentyl)-2-hydroxy-6-oxooctahydrocyclopenta[b]pyran-5-yl]heptanoic acid] | decrease | decrease | decreased | – | – | –
CC[C@H](C)CC(F)(F)[C@@]1(O)CC[C@H]2[C@@H](CC(=O)[C@@H]2CCCCCCC(=O)O)O1 [Compound B, (−)-7-{(2R,4aR,5R,7aR)-2-[(3S)-1,1-difluoro-3-methylpentyl]-2-hydroxy-6-oxooctahydrocyclopenta[b]pyran-5-yl}heptanoic acid] | – | – | – | significantly accelerated the ulcer healing | 43.1 ± 4.2 | 41.1 ± 3.1
